We go through 14 compounds from PubChem BioAssay (NCI).

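Each compound was tested at five concentrations against cells in 96-well plates for 48 hours. GI50 = concentration required for 50% inhibition of growth. TGI marks complete inhibition of growth.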

Some test systems named below: IGROV1 ovarian; NCI-H226 lung; SW-620 colon; MALME-3M melanoma; ACHN renal; HT29 colon; NCI-H460 lung; UO-31 renal; SF-539 CNS; OVCAR-3 ovarian.
Assay in all cases: DTP human tumour cell line panel, 48 h

Take `C#CCCCCC#CC1CCCC1C1=CC(=O)c2ccccc21` (configuration not stated): the TGI in the assay with IGROV1 ovarian stood at 19.4 µM; in the assay on NCI-H226 lung it was 29.8 µM; in the assay with SW-620 colon, 6.39 µM; in the assay with MALME-3M melanoma, 20.1 µM; in the assay with ACHN renal it was 19.9 µM; in the assay on HT29 colon, 15.9 µM. Besides, the TGI is 32.5 µM in the assay with NCI-H460 lung, 21.3 µM in the assay with UO-31 renal, 21.1 µM in the assay on SF-539 CNS and 17.8 µM in the assay with OVCAR-3 ovarian.
Turning to `CN(C)CCNc1ccc2nnn3c4ccc(Cl)cc4c(=O)c1c23`, the TGI was determined as 38.7 µM in the assay on IGROV1 ovarian; 5.31 µM in the assay with NCI-H226 lung; 18 µM in the assay on SW-620 colon; 17 µM with MALME-3M melanoma; 12.3 µM in the assay with ACHN renal; 15.9 µM with HT29 colon. For the same compound, the TGI in the assay with NCI-H460 lung is 14.8 µM; with UO-31 renal, 9.41 µM; in the assay with SF-539 CNS, 16.2 µM; in the assay on OVCAR-3 ovarian it was 23 µM.
Take `N=C(N)SC1c2ccccc2-c2cc([N+](=O)[O-])ccc21` (configuration not stated): the total growth inhibition concentration (TGI) was 18 µM with IGROV1 ovarian; 21 µM in the assay on NCI-H226 lung; 22.1 µM in the assay on SW-620 colon; 16.9 µM in the assay with MALME-3M melanoma; 18.9 µM in the assay with ACHN renal; 13.5 µM in the assay on HT29 colon. Also, the TGI with NCI-H460 lung was found to be 17.2 µM; in the assay on UO-31 renal, 20.3 µM; in the assay with SF-539 CNS, 13.7 µM; in the assay on OVCAR-3 ovarian, 7.47 µM.
With `O=[N+]([O-])/C=C/c1cccc(F)c1`, the TGI with IGROV1 ovarian is greater than 100 µM; in the assay on NCI-H226 lung, 6.05 µM; in the assay with SW-620 colon it was 8.88 µM; in the assay with MALME-3M melanoma, 32.5 µM; with ACHN renal it was 6.84 µM; with HT29 colon, 10.3 µM. The TGI with NCI-H460 lung is 30.4 µM; with UO-31 renal, 5.87 µM; with SF-539 CNS, 20.8 µM; with OVCAR-3 ovarian, 7.38 µM.
Consider `CC1(C)[C@@H]2C[C@H]1C(Cc1ccccc1C[C@H]1c3cc(-c4ccccn4)ncc3[C@H]3C[C@@H]1C3(C)C)c1cc(-c3ccccn3)ncc12` (some centres not stated), for which the TGI in the assay with IGROV1 ovarian was 26.2 µM; in the assay on SW-620 colon it was greater than 100 µM; in the assay on MALME-3M melanoma, greater than 100 µM; with ACHN renal, 4.83 µM; with HT29 colon, greater than 100 µM; with NCI-H460 lung it was greater than 31.9 µM. Also, the TGI with UO-31 renal amounted to 2.41 µM; in the assay with SF-539 CNS it was 8.42 µM; in the assay on OVCAR-3 ovarian, 1.45 µM.
Consider `NC(Cc1ccc2oc3cc(=O)c4ccccc4c-3nc2c1)C(=O)O` (configuration not stated), for which the TGI in the assay with IGROV1 ovarian was greater than 100 µM; in the assay on NCI-H226 lung, 73.1 µM; with SW-620 colon, 80.9 µM; with MALME-3M melanoma, 17.6 µM; with ACHN renal it was greater than 100 µM; in the assay with HT29 colon, 72.6 µM. Also, the TGI in the assay on NCI-H460 lung was 32 µM; in the assay with UO-31 renal, greater than 100 µM; in the assay on SF-539 CNS, 54.6 µM; in the assay on OVCAR-3 ovarian, 81.5 µM.
In the case of `Cc1ccc(NCCN(C)CC(C)O)c2c(=O)c3ccc(Cl)cc3sc12` (configuration not stated), the GI50 is 4.79 µM in the assay with IGROV1 ovarian, 5.45 µM in the assay with NCI-H226 lung, 1.78 µM in the assay on MALME-3M melanoma and 4.13 µM in the assay on OVCAR-3 ovarian. Besides, the TGI is greater than 100 µM in the assay with IGROV1 ovarian, greater than 100 µM in the assay with NCI-H226 lung, 3.54 µM in the assay on MALME-3M melanoma and greater than 100 µM with OVCAR-3 ovarian.
For the compound `CC(=O)O[C@H]1CC[C@]2(C)[C@H]3C(=O)C=C4[C@@H]5C[C@](C)(C(=O)N6CCCNCC6)CC[C@]5(C)CC[C@@]4(C)[C@]3(C)CC[C@H]2C1(C)C`, the GI50 in the assay with SW-620 colon is 1.67 µM; with MALME-3M melanoma it was 1.8 µM; in the assay with ACHN renal it was 1.66 µM; in the assay on HT29 colon, 1.5 µM; in the assay with NCI-H460 lung, 1.58 µM; with UO-31 renal, 1400 nM. The results for the GI50 in the assay on SF-539 CNS and with OVCAR-3 ovarian were 1.62 µM and 1.76 µM, respectively. The TGI is 3.22 µM in the assay on SW-620 colon; 3.47 µM with MALME-3M melanoma; 3.02 µM in the assay on ACHN renal; 3.17 µM in the assay with HT29 colon; 3.11 µM in the assay on NCI-H460 lung; 2.82 µM with UO-31 renal. In addition, the TGI in the assay with SF-539 CNS is 3 µM; in the assay with OVCAR-3 ovarian, 3.29 µM.
As for `C/C=C1/CN2CC[C@@H]3c4ccccc4N4[C@H](C(=O)OC)[C@H]1C[C@H]2[C@]34/C=C/C1=COC[C@@H]2[C@H]1C[C@H]1c3c(c4ccccc4n3C)C[C@@H]2N1C`, the TGI worked out at 8.81 µM in the assay on IGROV1 ovarian; 9.16 µM in the assay on NCI-H226 lung; 7.6 µM with SW-620 colon; 8.5 µM in the assay on MALME-3M melanoma; 7.43 µM in the assay on ACHN renal; 5.92 µM in the assay with HT29 colon. Also, the TGI with NCI-H460 lung turned out to be 7.41 µM; in the assay on UO-31 renal, 7.98 µM; in the assay with SF-539 CNS, 7.61 µM; in the assay on OVCAR-3 ovarian it was 9.66 µM.
For the compound `CCCCCCc1ccc(O)cc1O`, the TGI in the assay on IGROV1 ovarian is greater than 93.8 µM; with NCI-H226 lung, greater than 100 µM; with SW-620 colon it was greater than 100 µM; in the assay on MALME-3M melanoma, greater than 100 µM; with HT29 colon, greater than 100 µM; with NCI-H460 lung, greater than 100 µM. Moreover, the TGI is 86.7 µM in the assay on UO-31 renal, greater than 100 µM in the assay with SF-539 CNS and greater than 100 µM in the assay with OVCAR-3 ovarian.
In the case of `NC(=O)c1nnc2cc(F)c(F)cc2c1N`, the TGI was greater than 100 µM in the assay with IGROV1 ovarian; 73.6 µM with NCI-H226 lung; greater than 100 µM with SW-620 colon; greater than 100 µM with MALME-3M melanoma; greater than 100 µM with ACHN renal; greater than 100 µM in the assay with HT29 colon. Further, the total growth inhibition concentration (TGI) with NCI-H460 lung, with UO-31 renal, in the assay with SF-539 CNS and in the assay on OVCAR-3 ovarian was greater than 100 µM in each case.
In the case of `CN[C@@H]1[C@H](O)[C@H](NC)[C@H]2O[C@@]3(O)C(=O)C[C@@H](C)O[C@H]3O[C@@H]2[C@H]1O`, the TGI with IGROV1 ovarian, with NCI-H226 lung, in the assay with SW-620 colon, in the assay with MALME-3M melanoma, in the assay on ACHN renal and in the assay on HT29 colon was greater than 100 µM throughout. In addition, the TGI in the assay with NCI-H460 lung, in the assay with UO-31 renal, with SF-539 CNS and with OVCAR-3 ovarian was greater than 100 µM in each case.
`COc1cc2c(cc1O)CCN[C@@]21CS[C@H]2c3c(OC(C)=O)c(C)c4c(c3C(COC1=O)N1C2C2c3c(cc(C)c(OC)c3O)CC([C@@H]1O)N2C)OCO4` (some centres not stated): the values for the GI50 in the assay with IGROV1 ovarian, in the assay on NCI-H226 lung and in the assay on UO-31 renal were 0.000783 µM, less than 1e-06 µM and less than 0.001 nM, respectively. For the same compound, the TGI with NCI-H226 lung was less than 1e-06 µM; in the assay with ACHN renal, 0.0012 µM; with UO-31 renal it was less than 1e-06 µM.
Consider `C=C(/C=C/C=C(/CCC=C(C)C)COC(C)=O)[C@@H]1CC[C@]2([C@H](CCCO)/C(=C(/C)C=O)CC[C@]2(C)O)[C@@H]1O`, for which the TGI in the assay on IGROV1 ovarian stood at 36.2 µM; with NCI-H226 lung it was 19.6 µM; with SW-620 colon, 22 µM; in the assay on MALME-3M melanoma, 15.7 µM; with ACHN renal, 27.6 µM; with HT29 colon, 28.4 µM. Further, the results for the TGI in the assay on NCI-H460 lung, with UO-31 renal and in the assay on SF-539 CNS were 24.3 µM, 25.6 µM and 28.5 µM, respectively.
